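Each compound was tested at five concentrations against cells in 96-well plates for 48 hours. GI50: concentration for 50% inhibition of growth.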 Calls of active or inactive are those of the source. Rule as the data show it: active = GI50 up to about 1.1 µM and inactive = higher.

Assay in all cases: growth of human tumour cells (NCI), 48 h
Test [1] deals with Hs-578T.
Test [2] has as its system OVCAR-3.
Test [3] deals with CCRF-CEM.
The subject of test [4] is A549.
The subject of test [5] is COLO 205.
Test [6] concerns SF-268.
Test [7] has as its system RPMI-8226.
Test [8] has as its system LOX IMVI.
Test [9] concerns A498.
Test [10] concerns MDA-N.
The test system of test [11] is SK-MEL-28.
Test [12] concerns M14.
Test [13] deals with MDA-MB-231.
The test system of test [14] is MOLT-4.
In test [15] the test system is RXF 393.
Test [16] deals with SR.
Test [17] concerns OVCAR-8.
Test [18] has as its system NCI/ADR-RES.

With `CC(C)(C)N1C(=O)[N-]/[N+](=C(/C(c2ccccc2)=[N+]2/[N-]C(=O)N(C(C)(C)C)C2=O)c2ccccc2)C1=O`, the GI50 in [1], in test [2], in test [3], in test [4], in test [5] and in test [6] was > 100 µM (inactive) in each case. Besides, the GI50 in [7], in [8], in test [9], in [10], in test [11] and in test [12] was > 100 µM (inactive) in each case. Further, the GI50 in test [13], in [14] and in test [15] was > 100 µM (inactive) in each case.

As for `COc1ccc(/C=C2\CCC(C)C3=C2N=c2s/c(=C/c4cccc(Br)c4)c(=O)n2C3c2ccc(OC)c(OC)c2)cc1OC` (stereo unspecified), the GI50 in test [16], in [1], in test [3], in test [4], in [6] and in [7] was > 100 µM (inactive) in each case. In addition, the GI50 in [8], in [9], in test [10], in [11], in [12] and in test [17] was > 100 µM (inactive) each time. In addition, the GI50 in [13], in test [14] and in test [15] was > 100 µM (inactive) throughout.

Regarding `CCCCCCCCCC[C@H](O)[C@H](O)CC[C@@H](O)[C@H]1CC[C@@H]([C@H]2CC[C@H](CCCCCCC[C@@H](O)CC3=C[C@H](C)OC3=O)O2)O1`, the GI50 in test [1] was 2.79 µM (inactive); in [2] it was 1.42 µM (inactive); in test [3] it was 2.52 µM (inactive); in test [18] it was 1.25 µM (inactive); in test [4], 1.84 µM (inactive); in test [5] it was 1.71 µM (inactive). Moreover, the GI50 in test [6] is 2.15 µM (inactive); in test [7], 0.82 µM (active); in test [8], 1.33 µM (inactive); in test [9], 8.97 µM (inactive); in [10] it was 2.82 µM (inactive); in [11], 2.41 µM (inactive). In addition, the GI50 in test [12] is 3.34 µM (inactive); in test [17], 2.95 µM (inactive); in [13], 2.31 µM (inactive); in [14] it was 2.26 µM (inactive); in [15] it was 4.48 µM (inactive).

Take `COc1nc2c(c(=O)n1C)N[C@@H]1[C@@H](O)[C@H](O)CO[C@@H]1N2`: the GI50 in [16], in [1], in [2], in test [3], in test [18] and in [4] was > 100 µM (inactive) throughout. The GI50 in test [5], in [6], in test [7], in test [8], in test [9] and in [10] was > 100 µM (inactive) throughout. For the same compound, the GI50 in [11], in test [12], in test [17], in [14] and in [15] was > 100 µM (inactive) throughout.

`NC(=O)C/C=C/CC(N)=O`: the GI50 in test [1], in test [2], in test [3], in test [18], in test [4] and in test [5] was > 100 µM (inactive) each time. Besides, the GI50 in [6], in [7], in test [8], in test [9], in [10] and in [11] was > 100 µM (inactive) in each case. In addition, the GI50 in test [12] was > 100 µM (inactive); in [17], > 100 µM (inactive); in test [13], > 100 µM (inactive); in test [14], 0.259 µM (active); in [15], > 100 µM (inactive).

Turning to `CC(O)c1nc(C#N)c(N)o1` (stereo unspecified), the GI50 in test [1], in [2], in [3], in test [18], in test [4] and in test [5] was > 100 µM (inactive) each time. Moreover, the GI50 in test [6], in [7], in test [8], in [9], in test [10] and in test [11] was > 100 µM (inactive) each time. Besides, the GI50 in test [12], in test [17], in test [13] and in test [14] was > 100 µM (inactive) in each case.

Consider `CCCCc1ccc(N2C(=O)c3cccnc3S2(=O)=O)cc1`, for which the GI50 in test [16], in test [2], in test [3], in [18], in test [4] and in [5] was > 100 µM (inactive) in each case. In addition, the GI50 in [6], in test [7], in test [9], in test [10], in [11] and in [12] was > 100 µM (inactive) each time. Moreover, the GI50 in test [17], in [13], in [14] and in test [15] was > 100 µM (inactive) each time.

For the compound `Cc1ccc([N+](=O)[O-])cc1NC(=O)C(=O)C1CCC2=C(Sc3ccccc3N2)C1=O` (stereo unspecified), the GI50 in test [1] was > 100 µM (inactive); in test [2] it was 23 µM (inactive); in [3] it was 63.4 µM (inactive); in [18], > 100 µM (inactive); in test [4], > 100 µM (inactive); in test [5], > 100 µM (inactive). The GI50 in [6] is > 100 µM (inactive); in [8], > 100 µM (inactive); in test [10], > 100 µM (inactive); in test [11] it was > 100 µM (inactive); in [12] it was > 100 µM (inactive); in test [17], 66.8 µM (inactive). The values for the GI50 in [13], in test [14] and in [15] were > 100 µM (inactive), 43.7 µM (inactive) and > 100 µM (inactive), respectively.

Turning to `O=C([O-])C1([n+]2c(-c3ccccc3)cc(-c3ccccc3)cc2-c2ccccc2)CC1`, the GI50 in test [16] is 76.2 µM (inactive); in [1] it was 56.8 µM (inactive); in test [2], 38.6 µM (inactive); in test [3], 48.2 µM (inactive); in test [18] it was > 100 µM (inactive); in [4], > 100 µM (inactive). The GI50 in test [6] was 42.3 µM (inactive); in test [7] it was 32.2 µM (inactive); in [8] it was 82.6 µM (inactive); in test [9], > 100 µM (inactive); in test [10], 53.8 µM (inactive); in test [11], > 100 µM (inactive). The GI50 in test [12] was 43.6 µM (inactive); in test [17], > 100 µM (inactive); in test [14] it was 65.6 µM (inactive); in [15] it was > 100 µM (inactive).

With `CCOC(=O)c1ccc(/N=C2\Sc3nc4ccccc4n3\C2=N\c2ccc(C(=O)OCC)cc2)cc1`, the GI50 was 22.6 µM (inactive) in test [1]; 12.9 µM (inactive) in test [2]; > 100 µM (inactive) in test [3]; 22.1 µM (inactive) in test [18]; 25.2 µM (inactive) in test [4]; 38.5 µM (inactive) in test [5]. Also, the GI50 was 22.3 µM (inactive) in test [6]; 14.2 µM (inactive) in [8]; 34.3 µM (inactive) in test [9]; 18.5 µM (inactive) in test [10]; 39.2 µM (inactive) in test [11]; 16 µM (inactive) in test [12]. For the same compound, the GI50 in test [17] was 29.4 µM (inactive); in test [13], 22.5 µM (inactive); in [14] it was 9.77 µM (inactive); in test [15] it was 28.8 µM (inactive).

For `CC(C)(C)n1c(=O)n2n(c1=O)C1c3cccc4cccc(c34)C2C2c3cccc4cccc(c34)C1n1c(=O)n(C(C)(C)C)c(=O)n12`, the GI50 in test [1] was 64.3 µM (inactive); in [2] it was 16.3 µM (inactive); in [3], 32.7 µM (inactive); in test [18], > 100 µM (inactive); in test [4], 78.3 µM (inactive); in test [5], > 100 µM (inactive). The GI50 was 53.8 µM (inactive) in test [6]; 55.8 µM (inactive) in test [7]; 42.8 µM (inactive) in [8]; > 100 µM (inactive) in test [9]; > 100 µM (inactive) in test [10]; > 100 µM (inactive) in test [11]. The GI50 is > 100 µM (inactive) in test [12], 86.9 µM (inactive) in test [17], 32.9 µM (inactive) in [13] and 61 µM (inactive) in [14].

With `O=C(O)c1ccc(Nc2nc3ccc(C(F)(F)F)cc3nc2-c2ccccc2)cc1`, the GI50 is 28.1 µM (inactive) in test [16]; 46.3 µM (inactive) in test [1]; 17.9 µM (inactive) in test [2]; 36.1 µM (inactive) in test [3]; 28.8 µM (inactive) in test [18]; 27 µM (inactive) in test [4]. The GI50 in [6] was 40.3 µM (inactive); in [7], 30.1 µM (inactive); in test [8] it was 40.4 µM (inactive); in [10], 47.6 µM (inactive); in test [11], 37.8 µM (inactive); in test [12] it was 24 µM (inactive). Besides, the GI50 in test [17] is 30.9 µM (inactive); in test [14], 30 µM (inactive); in test [15], 20.8 µM (inactive).

(Values after ChEMBL document CHEMBL1201862, “PubChem BioAssay data set” (2004).)
